Common to all, as to assay type: cell-based
In assay [1] the target is T1, SMARCA2 (Homo sapiens, UniProt P51531). Briefly: SMARCA2 Western blot degradation in MV4-11 cells. The following applies: for Dmax: MV4-11, MV4-11 cells, read-out: SMARCA2 MSD MV411 degradation 24 h: average Dmax %; for Dmax / DC50 / SMARCA2 MSD MV411 degradation 24 h: average Dmax %: 24 h; for DC50 / Selectivity in MV411 / SMARCA2 MSD MV411 degradation 24 h: average Dmax %: MV4-11 cells; for DC50: read-out: SMARCA2 MSD MV411 degradation 24 h: Mean external-Abs DC50; for Selectivity in MV411: SMARCA2/4 selectivity. Also noted: SMARCA2/SMARCA4 protein degradation selectivity in MV4-11 cells; endogenous in cells; host or cells: MV4-11. A general note: A western blot detects proteins with antibodies after separation by electrophoresis.

Assay [2] concerns the target T1, SMARCA2. Briefly: MSD SMARCA2 degradation in A549 cell line. The following applies: for Dmax: A549, A549 cells; for Dmax / DC50: 24 h; for DC50 / SMARCA2 MSD A549 degradation 24 h: Average Dmax %: A549 cells; for DC50: read-out: SMARCA2 MSD A549 degradation 24 h: Average external-Abs DC50. Put shortly:
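A549 cells treated 24 h with compound, 3-fold series from 1000 nM. Lysates captured on MSD plates and SMARCA2 quantified with anti-SMARCA2 and SULFO-TAG secondary antibodies (electrochemiluminescence). DC50 and Dmax (% degradation at 24 h) reported as letter bins.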

The target in another assay is T2, SMARCA4 (Homo sapiens, UniProt P51532).
T2 construct: SMARCA2/SMARCA4 protein degradation selectivity in MV4-11 cells; endogenous in cells; host or cells: MV4-11
Briefly: SMARCA4 Western blot degradation in MV4-11 cells. The following applies: for Dmax: MV4-11, MV4-11 cells, read-out: SMARCA4 MSD MV411 degradation 24 h: average Dmax %; for Dmax / DC50: 24 h; for DC50 / SMARCA4 MSD MV411 degradation 24 h: average Dmax %: MV4-11 cells; for DC50: read-out: SMARCA4 MSD MV411 degradation 24 h: Mean external-Abs DC50. An outline of the steps:
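MV4-11 cells (4×10^6/well) treated with compound for 24 h, lysed in RIPA with protease/phosphatase inhibitors, and SMARCA2, SMARCA4 and beta-actin detected by Western blot with LI-COR readout. Values reported as letter-coded DC50, 24 h Dmax % and SMARCA2/4 selectivity fold.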

T1 sequence (P51531 whole entry): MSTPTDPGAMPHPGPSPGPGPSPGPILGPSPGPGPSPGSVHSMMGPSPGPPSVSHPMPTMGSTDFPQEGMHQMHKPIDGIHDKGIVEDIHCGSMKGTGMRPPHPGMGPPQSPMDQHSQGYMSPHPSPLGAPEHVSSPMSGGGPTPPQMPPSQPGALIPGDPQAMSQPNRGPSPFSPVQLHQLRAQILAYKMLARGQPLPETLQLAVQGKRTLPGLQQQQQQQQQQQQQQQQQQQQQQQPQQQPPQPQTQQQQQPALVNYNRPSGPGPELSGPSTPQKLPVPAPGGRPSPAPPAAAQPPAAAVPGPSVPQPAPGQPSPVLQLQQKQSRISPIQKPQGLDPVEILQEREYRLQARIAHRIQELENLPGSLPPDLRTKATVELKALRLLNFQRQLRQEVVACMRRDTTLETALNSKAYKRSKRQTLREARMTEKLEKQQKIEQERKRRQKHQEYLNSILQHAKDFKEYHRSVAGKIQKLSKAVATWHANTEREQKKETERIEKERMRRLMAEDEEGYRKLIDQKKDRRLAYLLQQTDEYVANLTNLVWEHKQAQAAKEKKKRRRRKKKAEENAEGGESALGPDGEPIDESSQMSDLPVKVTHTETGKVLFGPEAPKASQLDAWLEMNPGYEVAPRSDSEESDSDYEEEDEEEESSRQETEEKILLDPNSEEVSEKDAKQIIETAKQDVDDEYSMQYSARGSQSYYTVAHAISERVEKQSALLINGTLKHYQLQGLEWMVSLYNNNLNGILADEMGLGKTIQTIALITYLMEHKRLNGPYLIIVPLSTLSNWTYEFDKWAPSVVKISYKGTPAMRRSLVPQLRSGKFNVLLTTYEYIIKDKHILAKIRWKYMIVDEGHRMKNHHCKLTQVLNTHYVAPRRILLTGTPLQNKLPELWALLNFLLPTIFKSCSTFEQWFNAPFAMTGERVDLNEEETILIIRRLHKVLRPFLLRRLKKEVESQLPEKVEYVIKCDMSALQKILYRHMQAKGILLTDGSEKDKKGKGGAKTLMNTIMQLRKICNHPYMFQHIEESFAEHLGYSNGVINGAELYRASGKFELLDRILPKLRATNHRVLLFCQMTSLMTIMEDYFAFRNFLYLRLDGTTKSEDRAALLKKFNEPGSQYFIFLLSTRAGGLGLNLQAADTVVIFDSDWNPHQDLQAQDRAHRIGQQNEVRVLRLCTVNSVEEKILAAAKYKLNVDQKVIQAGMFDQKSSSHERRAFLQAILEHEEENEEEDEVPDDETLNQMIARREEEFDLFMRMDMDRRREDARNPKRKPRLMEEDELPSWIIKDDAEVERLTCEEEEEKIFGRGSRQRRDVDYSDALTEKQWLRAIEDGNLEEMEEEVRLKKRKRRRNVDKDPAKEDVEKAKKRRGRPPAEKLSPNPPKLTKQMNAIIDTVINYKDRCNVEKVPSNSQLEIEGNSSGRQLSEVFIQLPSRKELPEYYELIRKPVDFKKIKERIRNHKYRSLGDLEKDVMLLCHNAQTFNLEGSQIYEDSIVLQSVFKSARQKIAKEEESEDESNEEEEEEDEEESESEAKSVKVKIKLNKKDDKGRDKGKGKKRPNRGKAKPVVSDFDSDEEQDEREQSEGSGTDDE
T2 sequence (P51532 whole entry): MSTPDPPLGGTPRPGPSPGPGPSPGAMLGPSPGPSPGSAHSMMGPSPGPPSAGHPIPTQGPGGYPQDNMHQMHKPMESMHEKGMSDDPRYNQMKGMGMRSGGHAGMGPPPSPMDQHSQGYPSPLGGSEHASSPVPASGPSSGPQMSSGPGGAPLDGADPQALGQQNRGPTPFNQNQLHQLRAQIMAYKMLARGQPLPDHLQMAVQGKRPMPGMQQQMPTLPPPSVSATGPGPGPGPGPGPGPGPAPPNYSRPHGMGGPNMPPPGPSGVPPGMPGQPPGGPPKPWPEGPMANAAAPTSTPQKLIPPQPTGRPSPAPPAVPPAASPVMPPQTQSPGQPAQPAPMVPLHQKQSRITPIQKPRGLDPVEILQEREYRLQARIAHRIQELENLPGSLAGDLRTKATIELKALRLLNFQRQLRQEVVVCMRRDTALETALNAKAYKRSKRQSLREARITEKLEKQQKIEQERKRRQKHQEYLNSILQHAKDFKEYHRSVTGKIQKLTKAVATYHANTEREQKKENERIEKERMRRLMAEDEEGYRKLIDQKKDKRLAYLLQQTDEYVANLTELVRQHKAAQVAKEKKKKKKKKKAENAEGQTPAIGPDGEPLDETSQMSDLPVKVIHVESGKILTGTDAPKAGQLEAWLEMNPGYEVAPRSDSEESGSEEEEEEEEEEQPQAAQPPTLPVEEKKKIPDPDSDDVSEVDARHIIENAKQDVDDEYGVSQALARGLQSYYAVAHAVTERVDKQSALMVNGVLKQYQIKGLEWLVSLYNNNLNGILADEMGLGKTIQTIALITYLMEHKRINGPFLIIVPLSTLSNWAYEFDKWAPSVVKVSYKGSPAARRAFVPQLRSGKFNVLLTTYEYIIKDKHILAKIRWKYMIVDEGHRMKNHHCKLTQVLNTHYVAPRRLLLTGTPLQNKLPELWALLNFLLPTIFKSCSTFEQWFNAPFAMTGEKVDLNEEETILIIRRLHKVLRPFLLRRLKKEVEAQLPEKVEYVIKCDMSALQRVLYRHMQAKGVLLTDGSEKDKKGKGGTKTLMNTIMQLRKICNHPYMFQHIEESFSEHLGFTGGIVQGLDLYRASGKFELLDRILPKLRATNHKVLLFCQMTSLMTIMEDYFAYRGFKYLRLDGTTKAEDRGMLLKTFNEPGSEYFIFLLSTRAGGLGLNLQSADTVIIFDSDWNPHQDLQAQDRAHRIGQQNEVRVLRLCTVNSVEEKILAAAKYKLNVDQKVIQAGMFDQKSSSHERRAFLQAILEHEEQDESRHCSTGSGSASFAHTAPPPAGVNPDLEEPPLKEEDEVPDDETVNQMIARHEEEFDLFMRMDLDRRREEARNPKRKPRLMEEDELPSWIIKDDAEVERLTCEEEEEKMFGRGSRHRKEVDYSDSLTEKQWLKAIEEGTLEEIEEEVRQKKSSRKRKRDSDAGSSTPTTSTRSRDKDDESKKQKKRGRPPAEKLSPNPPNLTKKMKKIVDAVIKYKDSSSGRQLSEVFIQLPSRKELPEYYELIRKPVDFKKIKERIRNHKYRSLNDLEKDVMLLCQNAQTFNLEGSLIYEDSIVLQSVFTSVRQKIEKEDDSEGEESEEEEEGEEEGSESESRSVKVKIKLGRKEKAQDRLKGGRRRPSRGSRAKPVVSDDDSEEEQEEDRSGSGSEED

As to `C#Cc1cc(Cl)c(CNC(=O)[C@@H]2C[C@@H](O)CN2C(=O)[C@@H](NC(=O)[C@H]2CC3(C2)C[C@H](N2CCC(N4CCC(N5CCN6c7cc(-c8ccccc8O)nnc7NC[C@H]6C5)CC4)CC2)C3)C(C)(C)C)c(OC)c1` (single isomer, unassigned) [I-328], on SMARCA2 [1], the Dmax was less than 50%, the DC50 was greater than 100 nM and the “Selectivity in MV411” value was “D (D (<10 fold))”. Further, at SMARCA2 [2], the Dmax is less than 50% and the DC50 is greater than 100 nM. For the same compound, at SMARCA4, the Dmax was less than 50% and the DC50 is greater than 100 nM.
For the compound `C#Cc1ccc(CNC(=O)[C@@H]2C[C@@H](O)CN2C(=O)[C@@H](NC(=O)N2CC3(CC(N4CCC(N5CCC(N6CCc7[nH]c8nnc(-c9ccccc9O)cc8c7[C@@H]6C)CC5)CC4)C3)C2)C(C)(C)C)c(F)c1` [I-182], at SMARCA2 [1], the Dmax is 50 to 70%, the DC50 lay in the range of 10 to 100 nM and the “Selectivity in MV411” value is given as “D (D (<10 fold))”. At SMARCA2 [2], the Dmax is greater than 90% and the DC50 was greater than 100 nM. On SMARCA4, the Dmax lay in the range of 70 to 90% and the DC50 was greater than 100 nM.
Turning to `C#Cc1ccc(CNC(=O)[C@@H]2C[C@@H](O)CN2C(=O)[C@@H](NC(=O)[C@H]2CCC3(CC2)C[C@H](N2CCC(N4CC5(CC(N6CCN7c8cc(-c9ccccc9O)nnc8NC[C@H]7C6)C5)C4)CC2)C3)C(C)(C)C)c(Cl)c1` (single isomer, unassigned) [I-238], at SMARCA2 [1], the “SMARCA2 MSD MV411 degradation 24 h: average Dmax %” value is given as “B (B (>70-90% degradation))”, the DC50 was 10 to 100 nM and the “Selectivity in MV411” value is given as “C (C (10-100 fold))”. For the same compound, on SMARCA2 [2], the “SMARCA2 MSD A549 degradation 24 h: Average Dmax %” value is listed as “A (A (>90% degradation))” and the DC50 is greater than 100 nM. Also, on SMARCA4, the “SMARCA4 MSD MV411 degradation 24 h: average Dmax %” value is recorded as “D (D (<50% degradation))” and the DC50 was greater than 100 nM.
On to `C#Cc1ccc(CNC(=O)[C@@H]2C[C@@H](O)CN2C(=O)[C@@H](NC(=O)[C@H]2CCC3(CC2)C[C@H](N2CCC(c4cnc(N5CCN6c7cc(-c8ccccc8O)nnc7NC[C@H]6C5)nc4)CC2)C3)C(C)(C)C)c(OC)c1` (single isomer, unassigned) [I-100], for which, at SMARCA2 [1], the Dmax was greater than 90%, the DC50 was less than 1 nM and the “Selectivity in MV411” value was “C (C (10-100 fold))”. Further, at SMARCA2 [2], the “SMARCA2 MSD A549 degradation 24 h: Average Dmax %” value is “A (A (>90% degradation))” and the DC50 is less than 10 nM. Besides, at SMARCA4, the Dmax is 70 to 90% and the DC50 was 10 to 100 nM.
As to `Cc1ncsc1-c1ccc([C@H](C)NC(=O)[C@@H]2C[C@@H](O)CN2C(=O)[C@@H](NC(=O)Cc2ccc(CCCC(=O)N3CCN4c5cc(-c6ccccc6O)nnc5NC[C@H]4C3)cc2)C(C)(C)C)cc1` (single isomer, unassigned) [I-83], at SMARCA2 [1], the Dmax was greater than 90%, the DC50 was in the range of 1 to 10 nM and the “Selectivity in MV411” value is “C (C (10-100 fold))”. Further, on SMARCA2 [2], the Dmax lay within 70 to 90% and the DC50 was 50 to 100 nM. Further, at SMARCA4, the Dmax was greater than 90% and the DC50 lay in the range of 10 to 100 nM.
As for `C#CCOc1cc(C(C(=O)N2C[C@H](O)C[C@H]2C(=O)NCc2ccc(-c3scnc3C)cc2O[C@H]2CC[C@H](N3CCC(c4cnc(N5CCc6[nH]c7nnc(-c8ccccc8O)cc7c6[C@H]5C)nc4)CC3)CC2)C(C)C)on1` (single isomer, unassigned) [I-38], on SMARCA2 [1], the Dmax is greater than 90%, the DC50 is less than 1 nM and the “Selectivity in MV411” value is given as “C (C (10-100 fold))”. In addition, on SMARCA2 [2], the Dmax is greater than 90% and the DC50 lay within 10 to 50 nM. In addition, on SMARCA4, the Dmax is greater than 90% and the DC50 fell in the range of 10 to 100 nM.
Take `C#Cc1ccc(CNC(=O)[C@@H]2C[C@@H](O)CN2C(=O)[C@@H](NC(=O)N2CC3(CC(N4CCC(c5cnc(N6CCc7[nH]c8nnc(-c9ccccc9O)cc8c7[C@H]6C)s5)CC4)C3)C2)C(C)(C)C)cc1` [I-323]: at SMARCA2 [1], the Dmax is 70 to 90%, the DC50 lay within 1 to 10 nM and the “Selectivity in MV411” value was “C (C (10-100 fold))”. Further, at SMARCA2 [2], the Dmax is greater than 90% and the DC50 fell in the range of 10 to 50 nM. Besides, at SMARCA4, the Dmax was in the range of 50 to 70% and the half-maximal degradation concentration (DC50) was greater than 100 nM.
For the compound `Cn1nccc1-c1ccc(CNC(=O)[C@@H]2C[C@@H](O)CN2C(=O)[C@@H](NC(=O)[C@H]2CC[C@H](c3ccc(-c4cnc(N5CCN6c7cc(-c8ccccc8O)nnc7NC[C@H]6C5)nc4)cc3)CC2)C(C)(C)C)cc1` (single isomer, unassigned) [I-87], at SMARCA2 [1], the Dmax is 70 to 90%, the DC50 lay within 10 to 100 nM and the “Selectivity in MV411” value was “C (C (10-100 fold))”. Further, on SMARCA2 [2], the Dmax was greater than 90% and the DC50 fell in the range of 10 to 50 nM. Further, at SMARCA4, the Dmax was greater than 90% and the DC50 lay within 10 to 100 nM.
Regarding `C#Cc1ccc(CNC(=O)[C@@H]2C[C@@H](O)CN2C(=O)[C@H](NC(=O)N2CC3(CC(N4CCC(c5cnc(N6CCc7[nH]c8nnc(-c9ccccc9O)cc8c7[C@H]6C)nc5)CC4)C3)C2)C(C)(C)CCN2CCOCC2)cc1` (single isomer, unassigned) [I-337], on SMARCA2 [1], the greatest degradation seen (Dmax) is 70 to 90%, the DC50 is 10 to 100 nM and the “Selectivity in MV411” value was “B (B (>100-500 fold))”. Besides, at SMARCA2 [2], the Dmax is greater than 90% and the DC50 was greater than 100 nM. On SMARCA4, the Dmax was less than 50% and the half-maximal degradation concentration (DC50) is greater than 100 nM.
On to `C#Cc1ccc(CNC(=O)[C@@H]2C[C@@H](O)CN2C(=O)[C@@H](NC(=O)[C@H]2CCC3(CC2)C[C@H](N2CCC(N4CC5(CC(N6CCN7c8cc(-c9ccccc9O)nnc8NC[C@H]7C6)C5)C4)CC2)C3)C(C)(C)C)cc1` (single isomer, unassigned) [I-223], for which, at SMARCA2 [1], the Dmax was 70 to 90%, the DC50 was in the range of 1 to 10 nM and the “Selectivity in MV411” value is reported as “C (C (10-100 fold))”. Also, at SMARCA2 [2], the Dmax is greater than 90% and the DC50 was in the range of 50 to 100 nM. On SMARCA4, the maximal degradation (Dmax) was 50 to 70% and the half-maximal degradation concentration (DC50) is greater than 100 nM.
For the compound `Cc1ncsc1-c1ccc(CNC(=O)[C@@H]2C[C@@H](O)CN2C(=O)C(c2cc(OC[C@H]3CC[C@H](N4CCC(c5cnc(N6CCc7[nH]c8nnc(-c9ccccc9O)cc8c7[C@H]6C)nc5)CC4)CC3)no2)C(C)C)cc1` (single isomer, unassigned) [I-1], the Dmax at SMARCA2 [1], on SMARCA2 [2] and at SMARCA4 was greater than 90% each time. Besides, the DC50 at SMARCA2 [1] was 1 to 10 nM; on SMARCA2 [2], less than 10 nM; on SMARCA4, 1 to 10 nM. Moreover, the “Selectivity in MV411” value at SMARCA2 [1] is listed as “D (D (<10 fold))”.
For `C#Cc1ccc(CNC(=O)[C@@H]2C[C@@H](O)CN2C(=O)[C@@H](NC(=O)[C@H]2CCC3(CC2)C[C@H](N2CCN(c4cnc(N5CCN6c7cc(-c8ccccc8O)nnc7NC[C@H]6C5)nc4)CC2)C3)C(C)(C)CCO)c(Cl)c1` (single isomer, unassigned) [I-312], at SMARCA2 [1], the “SMARCA2 MSD MV411 degradation 24 h: average Dmax %” value was “B (B (>70-90% degradation))”, the DC50 was in the range of 10 to 100 nM and the “Selectivity in MV411” value is “B (B (>100-500 fold))”. In addition, on SMARCA2 [2], the “SMARCA2 MSD A549 degradation 24 h: Average Dmax %” value was “A (A (>90% degradation))” and the DC50 was 10 to 50 nM. For the same compound, at SMARCA4, the “SMARCA4 MSD MV411 degradation 24 h: average Dmax %” value is on record as “D (D (<50% degradation))” and the DC50 is greater than 100 nM.
Consider `C#Cc1ccc(CNC(=O)[C@@H]2C[C@@H](O)CN2C(=O)[C@@H](NC(=O)N2CC3(CC(N4CC5(CC(N6CCC(N7CCc8[nH]c9nnc(-c%10ccccc%10O)cc9c8[C@H]7C)CC6)C5)C4)C3)C2)C(C)(C)C)cc1` [I-205], for which, on SMARCA2 [1], the Dmax was less than 50%, the DC50 is greater than 100 nM and the “Selectivity in MV411” value is “C (C (10-100 fold))”. On SMARCA2 [2], the Dmax is greater than 90% and the DC50 was greater than 100 nM. On SMARCA4, the Dmax is less than 50% and the DC50 is greater than 100 nM.
As for `C#Cc1ccc(CNC(=O)[C@@H]2C[C@@H](O)CN2C(=O)[C@@H](NC(=O)N2CC3(CC(N4CCC(c5cnc(N6CCc7[nH]c8nnc(-c9ccccc9O)cc8c7[C@H]6C)nc5)CC4)C3)C2)C(C)(C)CCOCC(=O)O)cc1` (single isomer, unassigned) [I-262], on SMARCA2 [1], the Dmax was in the range of 70 to 90%, the DC50 fell in the range of 10 to 100 nM and the “Selectivity in MV411” value is “C (C (10-100 fold))”. At SMARCA2 [2], the Dmax fell in the range of 50 to 70% and the DC50 was greater than 100 nM. For the same compound, at SMARCA4, the Dmax was in the range of 50 to 70% and the DC50 was greater than 100 nM.
Consider `C#Cc1ccc(CNC(=O)[C@@H]2C[C@@H](O)CN2C(=O)[C@@H](NC(=O)C2CCC3(CC2)CC(N2CCC(N4CC(C(=O)N5CCN6c7cc(-c8ccccc8O)nnc7NC[C@H]6C5)C4)CC2)C3)C(C)(C)C)cc1` (stereo partly drawn) [I-92], for which, at SMARCA2 [1], the Dmax lay within 70 to 90%, the DC50 is 1 to 10 nM and the “Selectivity in MV411” value was “C (C (10-100 fold))”. Moreover, on SMARCA2 [2], the Dmax is greater than 90% and the DC50 is greater than 100 nM. Besides, at SMARCA4, the Dmax lay in the range of 50 to 70% and the DC50 was greater than 100 nM.

The term Dmax denotes the largest share of the target that was removed. The term DC50 denotes the midpoint of the concentration-degradation curve.

Source of the values: patent US20250170248A1, “SMARCA DEGRADERS AND USES THEREOF” (Kymera Therapeutics, Inc., priority 2021, published 2025).
